Columns and labels:
[1] = target: Sodium-dependent serotonin transporter (Homo sapiens, UniProt P31645); assay: Inhibition of human SERT expressed in CHO cells assessed as [3H]-5-hydroxytryptamine reuptake incubated for 20 mins measured after 30 mins by topcount method; assay type: cell-based
MDR1 = assay: Efflux ratio of apparent permeability from basolateral to apical side over apical to basolateral side in pig LLC-PK1 cells expressing human MDR1 at 10 umol/l after 2 hrs by LC/MS/MS analysis; assay type: ADME, cell-based, Sus scrofa
[2] = target: Sodium-dependent noradrenaline transporter (Homo sapiens, UniProt P23975); assay: Inhibition of human NET expressed in CHO cells assessed as [3H]-Norepinephrine reuptake incubated for 45 mins measured after 30 mins by topcount method; assay type: cell-based
[3] = Dissociation constant, pKa of the compound; assay type: physicochemical
[4] = target: Sodium-dependent dopamine transporter (Homo sapiens, UniProt Q01959); assay: Inhibition of human DAT expressed in CHO cells assessed as [3H]-dopamine reuptake incubated for 60 mins measured after 30 mins by topcount method; assay type: cell-based
[5] = Cmax in Crl:CD(SD)(IGS) rat at 1 mg/kg, po administered via cassette dosing by LC/MS/MS analysis; assay type: ADME, organism-based; design: dose 1 mg/kg, route oral; details: in vivo
[6] = Oral bioavailability in Crl:CD(SD)(IGS) rat at 1 mg/kg administered via cassette dosing by LC/MS/MS analysis; assay type: ADME, organism-based; details: in vivo
Rattus norvegicus [7] = assay: Ex vivo occupancy at NET in Sprague-Dawley rat brain cortex assessed as inhibition of [3H]-nisoxetine binding at 3 mg/kg, iv measured after 1 hr by scintillation counting method; assay type: functional
[8] = Mean residence time in Crl:CD(SD)(IGS) rat at 1 mg/kg, po administered via cassette dosing by LC/MS/MS analysis; assay type: ADME, organism-based; details: in vivo
[9] = AUC in Crl:CD(SD)(IGS) rat at 1 mg/kg, po administered via cassette dosing by LC/MS/MS analysis; assay type: ADME, organism-based; details: in vivo
Homo sapiens [10] = organism: Homo sapiens; assay: Selectivity ratio of IC50 for human SERT to IC50 for human NET
Homo sapiens [11] = organism: Homo sapiens; assay: Selectivity ratio of IC50 for human DAT to IC50 for human NET
Rattus norvegicus [12] = assay: Increase in urethral resistance in po dosed rat assessed as increase in leak point pressure after 15 mins to 4 hrs by Evans blue dye leakage based assay; assay type: functional, organism-based; details: Urethra

Chain of Sodium-dependent dopamine transporter (Q01959 whole entry): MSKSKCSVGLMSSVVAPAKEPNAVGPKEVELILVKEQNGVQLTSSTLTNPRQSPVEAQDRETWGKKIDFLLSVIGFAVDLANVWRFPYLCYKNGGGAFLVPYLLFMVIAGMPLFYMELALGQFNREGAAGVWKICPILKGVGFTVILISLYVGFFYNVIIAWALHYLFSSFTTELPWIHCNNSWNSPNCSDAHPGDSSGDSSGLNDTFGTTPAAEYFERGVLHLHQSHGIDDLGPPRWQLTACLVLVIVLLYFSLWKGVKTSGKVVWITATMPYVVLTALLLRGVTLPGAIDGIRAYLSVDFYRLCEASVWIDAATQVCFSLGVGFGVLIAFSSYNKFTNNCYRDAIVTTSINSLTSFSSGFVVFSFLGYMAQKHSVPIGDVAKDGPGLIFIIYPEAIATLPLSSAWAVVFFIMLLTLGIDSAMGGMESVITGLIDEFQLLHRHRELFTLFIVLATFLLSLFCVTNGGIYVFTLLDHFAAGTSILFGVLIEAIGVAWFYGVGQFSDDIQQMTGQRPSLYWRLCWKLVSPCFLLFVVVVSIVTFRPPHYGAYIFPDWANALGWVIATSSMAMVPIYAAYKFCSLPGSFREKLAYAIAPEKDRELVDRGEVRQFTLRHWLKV
Chain of Sodium-dependent noradrenaline transporter (P23975 whole entry): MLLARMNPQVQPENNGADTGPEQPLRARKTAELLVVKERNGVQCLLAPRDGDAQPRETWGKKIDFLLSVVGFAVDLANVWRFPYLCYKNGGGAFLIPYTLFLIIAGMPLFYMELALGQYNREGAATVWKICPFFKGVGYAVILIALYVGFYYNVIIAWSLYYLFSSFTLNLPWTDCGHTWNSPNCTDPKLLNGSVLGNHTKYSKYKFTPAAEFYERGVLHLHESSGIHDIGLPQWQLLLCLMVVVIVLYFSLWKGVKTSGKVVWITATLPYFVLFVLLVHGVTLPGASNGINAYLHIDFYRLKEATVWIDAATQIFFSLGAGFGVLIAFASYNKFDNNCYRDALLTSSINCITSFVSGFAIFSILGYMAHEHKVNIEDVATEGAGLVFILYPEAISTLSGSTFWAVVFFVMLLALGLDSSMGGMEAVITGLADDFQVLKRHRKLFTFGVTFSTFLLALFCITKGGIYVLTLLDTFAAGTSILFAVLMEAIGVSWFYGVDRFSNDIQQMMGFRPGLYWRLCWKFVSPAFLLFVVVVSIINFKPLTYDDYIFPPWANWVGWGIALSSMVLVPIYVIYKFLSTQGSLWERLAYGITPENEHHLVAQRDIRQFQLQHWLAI
Chain of Sodium-dependent serotonin transporter (P31645 whole entry): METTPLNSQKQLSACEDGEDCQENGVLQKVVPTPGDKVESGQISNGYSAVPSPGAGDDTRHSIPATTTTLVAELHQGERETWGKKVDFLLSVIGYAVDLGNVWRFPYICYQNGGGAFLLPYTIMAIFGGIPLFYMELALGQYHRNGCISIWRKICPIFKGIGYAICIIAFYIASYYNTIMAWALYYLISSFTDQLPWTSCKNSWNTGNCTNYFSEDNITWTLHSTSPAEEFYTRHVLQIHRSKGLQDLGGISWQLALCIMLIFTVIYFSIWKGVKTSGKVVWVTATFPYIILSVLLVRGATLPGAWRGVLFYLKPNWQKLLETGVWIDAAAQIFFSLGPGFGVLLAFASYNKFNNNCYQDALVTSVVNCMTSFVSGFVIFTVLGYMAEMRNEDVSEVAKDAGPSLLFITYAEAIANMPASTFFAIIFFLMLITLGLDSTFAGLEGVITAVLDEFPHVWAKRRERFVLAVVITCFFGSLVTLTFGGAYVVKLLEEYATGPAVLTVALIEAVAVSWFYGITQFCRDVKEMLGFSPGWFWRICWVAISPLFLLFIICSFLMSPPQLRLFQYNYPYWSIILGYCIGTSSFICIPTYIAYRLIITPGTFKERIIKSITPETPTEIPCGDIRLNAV

| IC50 [1] | efflux ratio at 2 h, 10 µM (MDR1) | IC50 [2] | pKa [3] | IC50 [4] | Cmax [5] | bioavailability [6] | MRT [8] | AUC [9] | Ratio IC50 (Homo sapiens [10]) | Ratio IC50 (Homo sapiens [11]) | Compound | Occ (Rattus norvegicus [7]) | Activity (Rattus norvegicus [12]) |
| --- | --- | --- | --- | --- | --- | --- | --- | --- | --- | --- | --- | --- | --- |
| > 1000 nM | 1.6 | 25 nM | 5.72 | > 1000 nM |  |  |  |  |  |  | Cl.O=c1[nH]c(-c2ccc(=O)n(C[C@@H]3CNCCO[C@H]3c3ccc(Cl)c(F)c3)c2)no1 |  |  |
| > 1000 nM | 0.6 | 100 nM | 6.35 | > 1000 nM |  |  |  |  |  |  | Cl.O=c1[nH]c(-c2cccc(=O)n2C[C@@H]2CNCCO[C@H]2c2ccc(Cl)c(F)c2)no1 |  |  |
| 54 nM | 7.8 | 0.21 nM |  | > 1000 nM |  |  |  |  |  |  | COC(=O)c1cccn(C[C@@H]2CNCCO[C@H]2c2ccc(Cl)c(F)c2)c1=O.Cl |  |  |
| 380 nM | 1.9 | 1 nM | 5.45 | > 1000 nM | 17.2 ng/mL | 12% | 1.5 h | 38.9 ng·h/mL |  |  | Cl.O=c1[nH]c(-c2cccn(C[C@@H]3CNCCO[C@H]3c3ccc(Cl)c(F)c3)c2=O)no1 | 28.4% |  |
| 85 nM |  | 0.13 nM |  | 400 nM |  |  |  |  | 650 | 3100 | O=C1CCCN1C[C@@H]1CNCCO[C@H]1c1ccc(Cl)c(F)c1 |  |  |
| 67 nM | 6.8 | 0.64 nM | 9.68 | > 1000 nM |  |  |  |  |  |  | Cc1nnc(-c2cccn(C[C@@H]3CNCCO[C@H]3c3ccc(Cl)c(F)c3)c2=O)[nH]1.Cl |  |  |
| 12 nM |  | 0.08 nM |  | 66 nM |  |  |  |  | 150 | 820 | O=C1NCCCN1C[C@@H]1CNCCO[C@H]1c1ccc(Cl)c(F)c1 |  |  |
| 120 nM | > 0.8 | 1.9 nM | 5.89 | > 1000 nM |  |  |  |  |  |  | Cl.O=c1[nH]c(-c2ccn(C[C@@H]3CNCCO[C@H]3c3ccc(Cl)c(F)c3)c(=O)c2)no1 |  |  |
| 79 nM |  | 0.065 nM |  | 240 nM |  |  |  |  | 1200 | 3600 | O=c1cccnn1C[C@@H]1CNCCO[C@H]1c1ccc(Cl)c(F)c1 |  |  |
| 27 nM |  | 0.1 nM |  | 130 nM |  |  |  |  | 270 | 1300 | O=C1CCCCN1C[C@@H]1CNCCO[C@H]1c1ccc(Cl)c(F)c1 |  |  |
| > 1000 nM | 2.1 | 1.1 nM | 2.58 | > 1000 nM | 93.8 ng/mL | 41% | 1.9 h | 197 ng·h/mL |  |  | Cl.O=C(O)c1cccn(C[C@@H]2CNCCO[C@H]2c2ccc(Cl)c(F)c2)c1=O | 14% | Dose-dependent effect |
| 730 nM | 1.7 | 1.4 nM | 3.88 | > 1000 nM | 16.2 ng/mL | 8% | 2 h | 44 ng·h/mL |  |  | Cl.O=c1c(-c2nnn[nH]2)cccn1C[C@@H]1CNCCO[C@H]1c1ccc(Cl)c(F)c1 | 12% |  |
| 130 nM |  | 0.079 nM |  | > 1000 nM | 47.9 ng/mL | 20% | 2.1 h | 107 ng·h/mL | 1700 | > 13000 | Cl.O=c1ccccn1C[C@@H]1CNCCO[C@H]1c1ccc(Cl)c(F)c1 | 83.4% |  |
| > 1000 nM |  |  |  | > 1000 nM |  |  |  |  | > 440 | > 440 | CC(=O)NC[C@@H]1CNCCO[C@H]1c1ccc(Cl)c(F)c1 |  |  |

From ChEMBL document CHEMBL3817725, “Design, synthesis, and biological evaluation of a novel series of peripheral-selective noradrenaline reuptake inhibitors - Part 3” (Bioorg Med Chem, 2016)
